# Key:
# [1] = tested on: S. aureus Met-R multiresistant strains; experiment: MIC determination (NCCLS broth microdilution), methicillin-resistant multiresistant S. aureus strains; assay type: cell-based, Staphylococcus aureus; conditions: for MIC: antibiotype Oxa, Ery
# Procedure: (§1) The MICs of thiamphenicol and of other antibiotics was obtained by using the method proposed by NCCLS (National Committee for Clinical Laboratory Standards, 1999).
# (§2) Various antibiotic concentrations were added to bacteria in exponental growth (final inoculum 5×10^5 […]); dilution in Mb (cation-supplemented Mueller-Hinton broth) and distribution on a microplate by using an automatic diluting machine Biomek 1000 (Beckman, USA). MHb charged with 2% NaCl was used to test the methicillin activity.
# (§3) The antibiotic concentration which hinders a visible growth after 18-24 hours of incubation at 37° C., was registered as MIC.
# (§4) S. aureus ATCC 29213 was used as quality control strain.
# [2] = tested on: S. aureus vancomycin-intermediates (VISA) Met-R strains; experiment: MIC determination (NCCLS broth microdilution), VISA Met-R strains; assay type: cell-based, Staphylococcus aureus
# Procedure: as §1, §2, §3, §4
compound,measurement,setting,value
"CN[C@H](CC(C)C)C(=O)N[C@H]1C(=O)N[C@@H](CC(N)=O)C(=O)N[C@H]2C(=O)N[C@H]3C(=O)N[C@H](C(=O)N[C@H](C(=O)O)c4cc(O)cc(O)c4-c4cc3ccc4O)[C@H](O)c3ccc(c(Cl)c3)Oc3cc2cc(c3O[C@@H]2O[C@H](CO)[C@@H](O)[C@H](O)[C@H]2O[C@H]2C[C@](C)(N)[C@H](O)[C@H](C)O2)Oc2ccc(cc2Cl)[C@H]1O [Vancomicine, vancomycine]",MIC Range,[1]; S. aureus (50) Met-R,"0,5-2 mg/l"
same,% susceptible at breakpoint,"[1]; S. aureus (50) Met-R, NCCLS (1999) breakpoints",100%
same,MIC50,[1]; Staphylococcus aureus,1 µg/mL
same,MIC90,[1]; Staphylococcus aureus,1 µg/mL
same,MIC,"[1]; Staphylococcus aureus, Strain 1, Cip, Clin, Gm",0.5 µg/mL
same,MIC,"[1]; Staphylococcus aureus, Strain 2, Clin, Fos",1 µg/mL
same,MIC,"[1]; Staphylococcus aureus, Strain 3, Cip, Clin, Gm",1 µg/mL
same,MIC,"[1]; Staphylococcus aureus, Strain 4, Cip, Gm",1 µg/mL
same,MIC,"[1]; Staphylococcus aureus, Strain 5, Cip, Clin",1 µg/mL
same,MIC,"[1]; Staphylococcus aureus, Strain 6, Clin, Gm",1 µg/mL
same,MIC,"[1]; Staphylococcus aureus, Strain 7, Cip, Gm",0.5 µg/mL
same,MIC,"[1]; Staphylococcus aureus, Strain 8, Cip, Clin",1 µg/mL
same,MIC,"[1]; Staphylococcus aureus, Strain 9, Cip, Clin, Gm",1 µg/mL
same,MIC,"[1]; Staphylococcus aureus, Strain 10, Cip, Clin, Gm",1 µg/mL
same,MIC,"[1]; Staphylococcus aureus, Strain 11, Clin, Rif",1 µg/mL
same,MIC,"[1]; Staphylococcus aureus, Strain 12, Cip, Clin",1 µg/mL
same,MIC,"[1]; Staphylococcus aureus, Strain 13, Cip, Clin",1 µg/mL
same,MIC,"[1]; Staphylococcus aureus, Strain 14, Clin, Cip",1 µg/mL
same,MIC,"[1]; Staphylococcus aureus, Strain 15, Cip, Clin, Gm",0.5 µg/mL
same,MIC,"[1]; Staphylococcus aureus, Strain 16, Cip, Clin",1 µg/mL
same,MIC,"[1]; Staphylococcus aureus, Strain 17, Cip, Clin",0.5 µg/mL
same,MIC,"[1]; Staphylococcus aureus, Strain 18, Cip, Clin, Gm",1 µg/mL
same,MIC,"[1]; Staphylococcus aureus, Strain 19, Cip, Clin, Gm",1 µg/mL
same,MIC,"[1]; Staphylococcus aureus, Strain 20, Cip, Clin, Gm",1 µg/mL
same,MIC,"[1]; Staphylococcus aureus, Strain 21, Cip, Clin, Gm",1 µg/mL
same,MIC,"[1]; Staphylococcus aureus, Strain 22, Cip, Clin",0.5 µg/mL
same,MIC,"[1]; Staphylococcus aureus, Strain 23, Cip, Clin, Gm",1 µg/mL
same,MIC,"[1]; Staphylococcus aureus, Strain 24, Cip, Clin, Gm",1 µg/mL
same,MIC,"[1]; Staphylococcus aureus, Strain 25, Cip, Clin, Gm",1 µg/mL
same,MIC,"[1]; Staphylococcus aureus, Strain 26, Cip, Clin, Fos, Gm",1 µg/mL
same,MIC,"[1]; Staphylococcus aureus, Strain 27, Cip, Clin, Fos, Gm",1 µg/mL
same,MIC,"[1]; Staphylococcus aureus, Strain 28, Cip, Clin, Gm",1 µg/mL
same,MIC,"[1]; Staphylococcus aureus, Strain 29, Clin, Fos",1 µg/mL
same,MIC,"[1]; Staphylococcus aureus, Strain 30, Cip, Clin, Gm, SXT, Dox",0.5 µg/mL
same,MIC,"[1]; Staphylococcus aureus, Strain 31, Cip, Clin, Fox, Gm",1 µg/mL
same,MIC,"[1]; Staphylococcus aureus, Strain 32, Cip, Clin, Gm, SXT, Rif",1 µg/mL
same,MIC,"[1]; Staphylococcus aureus, Strain 33, Cip, Clin, Gm",0.5 µg/mL
same,MIC,"[1]; Staphylococcus aureus, Strain 34, Cip, Clin, Gm",0.5 µg/mL
same,MIC,"[1]; Staphylococcus aureus, Strain 35, Cip, Clin, Gm",1 µg/mL
same,MIC,"[1]; Staphylococcus aureus, Strain 36, Cip, Clin, Fos",0.5 µg/mL
same,MIC,"[1]; Staphylococcus aureus, Strain 37, Cip, Clin, Fos, Gm",0.5 µg/mL
same,MIC,"[1]; Staphylococcus aureus, Strain 38, Cip, Gm",0.5 µg/mL
same,MIC,"[1]; Staphylococcus aureus, Strain 39, Cip, Clin, Fos, Gm",0.5 µg/mL
same,MIC,"[1]; Staphylococcus aureus, Strain 40, Cip, Clin, Gm",0.5 µg/mL
same,MIC,"[1]; Staphylococcus aureus, Strain 41, Cip, Clin",0.5 µg/mL
same,MIC,"[1]; Staphylococcus aureus, Strain 42, Cip, Clin, Gm",0.5 µg/mL
same,MIC,"[1]; Staphylococcus aureus, Strain 43, Cip, Clin, Gm",0.5 µg/mL
same,MIC,"[1]; Staphylococcus aureus, Strain 44, Cip, Clin, Gm, Rif, Dox",1 µg/mL
same,MIC,"[1]; Staphylococcus aureus, Strain 45, Cip, Clin, Gm, Rif, Dox, Fos",1 µg/mL
same,MIC,"[1]; Staphylococcus aureus, Strain 46, Clin, Fos",0.5 µg/mL
same,MIC,"[1]; Staphylococcus aureus, Strain 47, Cip, Clin, Gm",0.5 µg/mL
same,MIC,"[1]; Staphylococcus aureus, Strain 48, Cip, Clin",2 µg/mL
same,MIC,"[1]; Staphylococcus aureus, Strain 49, Cip, Gm",1 µg/mL
same,MIC,"[1]; Staphylococcus aureus, Strain 50, Cip, Clin, Gm, Rif, Dox",1 µg/mL
same,MIC,"[2]; Staphylococcus aureus, VISA",8 µg/mL
same,MIC,"[2]; Strain 52 VISA, antibiotype Oxa, Cip, Clin, Ery",8 µg/mL
same,MIC Range,[2]; VISA (2) Met-R,8 µg/mL

# Reference: patent publication US6589993B2, “Treating vancomycin-intermediates and multiresistant staphylococci infection with thiamphenicol or a salt thereof” (Zambon Group S.p.A., priority 2000, dated 2003)
